PubChem BioAssay AID1963840 (Molecular Pharmacology Branch, DTP, NCI, 2024)

System: 695427-040-R-J1-PDC complex spheroid viability
Test: Anticancer human tumor 695427-040-R-J1-PDC patient-derived colon adenocarcinoma cell line growth inhibition [POLQ]
Conditions: for IC50: curve of first compound; for viability, T/C: stronger effect = lower value; active means viability on the fitted dose curve at most 10% of control; inactive means the rest
How it was run: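 Three-cell-type spheroids modelling solid tumor plus stroma served as the readout system; POL inhibitors were tested individually and in combination, concentration ranges set by clinical Cmax where known.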

[1] = second compound 0.0316 µM, first compound 0.0316 µM
[2] = second compound 0.0316 µM, first compound 0.1 µM
[3] = second compound 0.0316 µM, first compound 0.316 µM
[4] = second compound 0.0316 µM, first compound 1 µM
[5] = second compound 0.0316 µM, first compound 3.16 µM
[6] = second compound 0.0316 µM, first compound 10 µM
[7] = second compound 0.1 µM, first compound 0.0316 µM
[8] = second compound 0.1 µM, first compound 0.1 µM
[9] = second compound 0.1 µM, first compound 0.316 µM
[10] = second compound 0.1 µM, first compound 1 µM
[11] = second compound 0.1 µM, first compound 3.16 µM
[12] = second compound 0.1 µM, first compound 10 µM
[13] = second compound 0.316 µM, first compound 0.0316 µM
[14] = second compound 0.316 µM, first compound 0.1 µM
[15] = second compound 0.316 µM, first compound 0.316 µM
[16] = second compound 0.316 µM, first compound 1 µM
[17] = second compound 0.316 µM, first compound 3.16 µM
[18] = second compound 0.316 µM, first compound 10 µM
[19] = second compound 1 µM, first compound 0.0316 µM
[20] = second compound 1 µM, first compound 0.1 µM
[21] = second compound 1 µM, first compound 0.316 µM
[22] = second compound 1 µM, first compound 1 µM
[23] = second compound 1 µM, first compound 3.16 µM
[24] = second compound 1 µM, first compound 10 µM
[25] = second compound 3.16 µM, first compound 0.0316 µM
[26] = second compound 3.16 µM, first compound 0.1 µM
[27] = second compound 3.16 µM, first compound 0.316 µM
[28] = second compound 3.16 µM, first compound 1 µM
[29] = second compound 3.16 µM, first compound 3.16 µM
[30] = second compound 3.16 µM, first compound 10 µM
[31] = second compound 10 µM, first compound 0.0316 µM
[32] = second compound 10 µM, first compound 0.1 µM
[33] = second compound 10 µM, first compound 0.316 µM
[34] = second compound 10 µM, first compound 1 µM
[35] = second compound 10 µM, first compound 3.16 µM
[36] = second compound 10 µM, first compound 10 µM
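Further: spheroids exposed to compounds for seven days.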
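Wherever viability, T/C is given: 100% = DMSO vehicle control viability.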

CC1COCCN1c1cc(C2(O)CC3CCC(C2)O3)c2cnn(-c3ccn[nH]3)c2n1 (centres undefined) + COC1C(OC(N)=O)C(O)C(Oc2ccc3c(O)c(NC(=O)c4ccc(O)c(CC=C(C)C)c4)c(=O)oc3c2C)OC1(C)C
3.94 µM: IC50 (second compound 0.0316 µM)
inactive: viability, T/C [1] 105% | viability, T/C [2] 86.8% | viability, T/C [3] 75.3% | viability, T/C [4] 64.9% | viability, T/C [5] 50.9% | viability, T/C [6] 41.9% | viability, T/C [7] 116% | viability, T/C [8] 88.6% | viability, T/C [9] 79.1% | viability, T/C [10] 61.5% | viability, T/C [11] 52.6% | viability, T/C [12] 44.9% | viability, T/C [13] 99.9% | viability, T/C [14] 84.7% | viability, T/C [15] 83.7% | viability, T/C [16] 71.2% | viability, T/C [17] 54.3% | viability, T/C [18] 44.6% | viability, T/C [19] 97.9% | viability, T/C [20] 91% | viability, T/C [21] 75.9% | viability, T/C [22] 64% | viability, T/C [23] 51% | viability, T/C [24] 45% | viability, T/C [25] 102% | viability, T/C [26] 91.2% | viability, T/C [27] 80% | viability, T/C [28] 62.6% | viability, T/C [29] 52.4% | viability, T/C [30] 45.3% | viability, T/C [31] 129% | viability, T/C [32] 91.8% | viability, T/C [33] 77.4% | viability, T/C [34] 63.9% | viability, T/C [35] 50.3% | viability, T/C [36] 44.6%
4.71 µM: IC50 (second compound 0.1 µM)
4.5 µM: IC50 (second compound 3.16 µM)
5.84 µM: IC50 (second compound 0.316 µM)
4.12 µM: IC50 (second compound 1 µM) | IC50 (second compound 10 µM)

COc1cccc2c1C(=O)c1c(O)c3c(c(O)c1C2=O)CC(O)(C(=O)CO)CC3OC1CC(N)C(O)C(C)O1 (centres undefined) + Cc1cccc(N(C)C(=O)C2C(O)CCN2c2nc(C)cc(C(F)(F)F)c2C#N)c1
4.41 µM: IC50 (second compound 10 µM)
8.57 µM: IC50 (second compound 3.16 µM)
inactive: viability, T/C [1] 97.7% | viability, T/C [2] 96.5% | viability, T/C [3] 89.7% | viability, T/C [4] 75.1% | viability, T/C [5] 67.7% | viability, T/C [6] 51% | viability, T/C [7] 105% | viability, T/C [8] 88.3% | viability, T/C [9] 95.6% | viability, T/C [10] 69% | viability, T/C [11] 66.4% | viability, T/C [12] 55.9% | viability, T/C [13] 103% | viability, T/C [14] 91.8% | viability, T/C [15] 89.1% | viability, T/C [16] 72.1% | viability, T/C [17] 78.6% | viability, T/C [18] 55.7% | viability, T/C [19] 97.5% | viability, T/C [20] 83.1% | viability, T/C [21] 87.3% | viability, T/C [22] 75.2% | viability, T/C [23] 67.5% | viability, T/C [24] 53.9% | viability, T/C [25] 96.6% | viability, T/C [26] 87.9% | viability, T/C [27] 83.3% | viability, T/C [28] 75.7% | viability, T/C [29] 64.9% | viability, T/C [30] 46.8% | viability, T/C [31] 81.6% | viability, T/C [32] 78.9% | viability, T/C [33] 73.3% | viability, T/C [34] 57.7% | viability, T/C [35] 56.4% | viability, T/C [36] 41.8%
> 10 µM: IC50 (second compound 0.0316 µM) | IC50 (second compound 0.1 µM) | IC50 (second compound 0.316 µM) | IC50 (second compound 1 µM)
